One data set has as its system NMRI male mice. The data set can be described thus: Methylphenidate antagonism in mice. The conditions noted are these: for ED50: Mus musculus, ip. In kind it is in vivo. The method, then: 1. As animals were used NMRI male mice weighing 18-25 grams.
3 × 2 or 5 × 2 mice are used for each dose level. Thirty minutes, 1 hour, 2 hours, 3 hours etc. after i.p. injection of test substance, methylphenidate, 60 mg/kg, is injected s.c. At each time interval separate groups of mice were used. After administration of methylphenidate the mice are placed in the observation cages, 2 in each cage, where they remain for 1 hour. The cages are placed on corrugated paper, the corrugations facing upwards. It is examined whether or not the mice have been biting the corrugated paper. […] The peak effect was determined for the test substances and also for a number of known neuroleptics.

A short description of data set [1]: Catalepsy-inducing effect in rats. It is filed as in vivo, male Wistar rats. The conditions noted are these: rat, in vivo, sc. As to the method:
(§1) Reference is made to L. Juluo: "On the Interaction between Neuroleptics and Antiparkinson Drugs." Modern Problems of Pharmacopsychiatry, vol. 5, pg, 50-54. The test may be described as follows:
(§2) Five animals are used at each dose level.
(§3) The test compound is injected subcutaneously (s.c.)
(§4) Injection volume is 5 ml of the vehicle/kg b.w.
(§5) Except when otherwise stated saline is used as vehicle.
(§6) The animals are placed in the middle of a vertical wire netting (50 cm/49 cm) 60, 120, 180, 240, 300 and 360 minutes after injection of the test compound.
(§7) The animals are considered cataleptic when they remain immobile during a period of 15 seconds. This cataleptic reaction is designated: + (plus). Untreated animals climb normally up and down the wire netting. The absence of catalepsy is designated: - (minus). The results are expressed as fractions as follows: 0/5, 1/5, 2/5, 3/5, 4/5 and 5/5 in which 0, 1, 2, 3,4 and 5 represent the number of cataleptic animals out of five animals tested.

The next data set relates to male Wistar rats. The data set can be described thus: Catalepsy-inducing effect in rats. It is filed as in vivo. To be noted: catalepsy (rats) / methylphenidate antagonism peak effect (mice). As to the method:
as §1, §2, §3, §4, §5, §6, §7

The mark [2] stands for this setting: mice, i.p., 24 h after injection, read-out: Methylphenidate antagonism ED50, 24 h.
[3] abbreviates: mice, i.p., peak effect, methylphenidate 60 mg/kg s.c., read-out: Methylphenidate antagonism, peak effect ED50.
[4] abbreviates: rats, s.c., dose producing catalepsy in 50% of the animals, read-out: Catalepsy ED50 max.
The mark [5] stands for this setting: read-out: Methylphenidate antagonism, peak effect ED50.

Where two headings read alike, the source gives them in different places.

The ED50 is the dose that gives a 50% effect, or the effect in half of the subjects.

In the case of `OCCN1CCN(CCCC2c3ccc(F)cc3Sc3ccc(C(F)(F)F)cc32)CC1` (centres unmarked) [Substance 1], the ED50 with NMRI male mice (setting [2]) amounted to 1.66 mg/kg; in the data set on NMRI male mice (setting [3]), 0.04 mg/kg; in data set [1], 0.9 mg/kg.
Turning to `CN1CCN(CCCC2c3ccc(F)cc3Sc3ccc(S(=O)(=O)N(C)C)cc32)CC1` (centres unmarked) [Substance 4, 2-dimethylsulfamoyl-6-fluoro-9-(3-(4-methylpiperazine-1-yl)propyl)-thiaxanthene], the ED50 is more than 5 mg/kg with NMRI male mice (setting [2]), 1 mg/kg in the data set with NMRI male mice (setting [3]) and 3.1 mg/kg in data set [1] (setting [4]). In the data set on male Wistar rats, the “Ratio Cat./Meth (catalepsy/methylphenidate antagonism)” value is 3.1.
Taken in the same sequence, the figures for `CN(C)S(=O)(=O)c1ccc2c(c1)C(=CCCN1CCC(CCO)CC1)c1ccc(F)cc1S2` [Substance 12, 2-Dimethylsulfamoyl-6-fluoro-9-(3-(4-(2-hydroxyethyl)-1-piperidyl)propylidene)-thiaxanthene] were more than 10 mg/kg, 0.87 mg/kg, 0.69 mg/kg and 0.8.
`OCCN1CCN(CCCC2c3ccc(C(F)(F)F)cc3Sc3ccc(C(F)(F)F)cc32)CC1` (centres unmarked) [Substance 11, reference compound]: the ED50 was more than 10 mg/kg in the data set with NMRI male mice (setting [3]) and more than 20 mg/kg in data set [1] (setting [4]).
Turning to `CN(C)CCCN1c2ccccc2Sc2ccc(Cl)cc21` [chlorpromazine, reference compound], the ED50 (in the data set on NMRI male mice (setting [5]); in data set [1]) was 4 mg/kg throughout. In addition, in the data set with male Wistar rats, the “Ratio Cat./Meth (catalepsy/methylphenidate antagonism)” value is 1.0.
As for `OCCN1CCN(CCCC2c3cc(C(F)(F)F)ccc3Sc3c2cccc3C(F)(F)F)CC1` (centres unmarked) [Substance 10, reference compound], the results for the ED50 (in the data set on NMRI male mice (setting [3]); in data set [1] (setting [4])) were more than 10 mg/kg and more than 20 mg/kg, respectively.
Consider `OCCN1CCN(CCCC2c3ccc(Cl)cc3Sc3ccc(C(F)(F)F)cc32)CC1` (centres unmarked) [Substance 8, reference compound], for which the ED50 in the data set on NMRI male mice (setting [3]) was 4 mg/kg; in data set [1] (setting [4]), more than 20 mg/kg. The “Ratio Cat./Meth (catalepsy/methylphenidate antagonism)” value in the data set with male Wistar rats is more than 5.
Turning to `OCCN1CCN(CCC=C2c3ccc(F)cc3Sc3ccc(C(F)(F)F)cc32)CC1` [Substance 6], the ED50 came to 0.24 mg/kg in the data set with NMRI male mice (setting [2]), 0.05 mg/kg in the data set with NMRI male mice (setting [3]) and 0.12 mg/kg in data set [1] (setting [4]).
In the case of `OCCC1CCN(CCC=C2c3ccc(F)cc3Sc3ccc(Cl)cc32)CC1` [Substance 15, 2-chloro-6-fluoro-9-(3-(4-(2-hydroxyethyl)piperidin-1-yl)propylidene)thiaxanthene], the figures for the ED50 (in the data set on NMRI male mice (setting [2]); in the data set with NMRI male mice (setting [3]); in data set [1] (setting [4])) were 0.27 mg/kg, 0.08 mg/kg and 0.07 mg/kg, respectively. In the data set on male Wistar rats, the “Ratio Cat./Meth (catalepsy/methylphenidate antagonism)” value stood at 0.9.
Consider `OCCC1CCN(CCC=C2c3ccc(F)cc3Sc3ccc(C(F)(F)F)cc32)CC1` [Substance 13], for which the ED50 with NMRI male mice (24 h, read-out: Methylphenidate antagonism ED50, 24 h) is 0.03 mg/kg; in the data set on NMRI male mice (setting [5]), 0.03 mg/kg; in data set [1] (setting [4]) it was 0.05 mg/kg.
`CN1CCN(CCCC2c3ccc(F)cc3Sc3ccc(C(F)(F)F)cc32)CC1` (centres unmarked) [Substance 2, 2-trifluoromethyl-6-fluoro-9-(3-(4-methyl-1-piperazinyl)propyl)thiaxanthene]: the ED50 in the data set on NMRI male mice (setting [2]) is more than 10 mg/kg; with NMRI male mice (setting [3]), 0.3 mg/kg; in data set [1] (setting [4]), 3.1 mg/kg. Further, the “duration of peak effect” value in the data set with NMRI male mice (mice, i.p.) is more than 5 h. For the same compound, in the data set with male Wistar rats, the “Ratio Cat./Meth (catalepsy/methylphenidate antagonism)” value worked out at 10.
On to `OCCN1CCN(CCCC2c3cc(C(F)(F)F)ccc3Sc3c(Cl)cccc32)CC1` (centres unmarked) [Substance 9, reference compound], for which the median effective dose (ED50) with NMRI male mice (setting [3]) was 14 mg/kg; in data set [1] (setting [4]), more than 20 mg/kg. Moreover, the “Ratio Cat./Meth (catalepsy/methylphenidate antagonism)” value with male Wistar rats is recorded as 1.5.
In the case of `CN1CCN(CCC=C2c3ccc(F)cc3Sc3ccc(S(=O)(=O)N(C)C)cc32)CC1` [Substance 5, 2-dimethylsulfamoyl-6-fluoro-9-(3-(4-methylpiperazine-1-yl)propylidene)-thiaxanthene], the ED50 in the data set on NMRI male mice (setting [2]) was more than 10 mg/kg; with NMRI male mice (setting [3]) it was 0.4 mg/kg; in data set [1] (setting [4]), 1 mg/kg. In addition, the “duration of peak effect” value in the data set with NMRI male mice (mice, i.p.) is more than 5 h. For the same compound, the “Ratio Cat./Meth (catalepsy/methylphenidate antagonism)” value in the data set on male Wistar rats came to 2.5.

These data come from patent publication US4042695A, “Thiaxanthene derivatives, compositions thereof and methods of treating therewith” (priority 1972, dated 1977).
